Experiment [1] has as its target T1, α-adrenergic receptor subtype 1A (Homo sapiens, UniProt P35348).
T1 sequence (P35348 1-466): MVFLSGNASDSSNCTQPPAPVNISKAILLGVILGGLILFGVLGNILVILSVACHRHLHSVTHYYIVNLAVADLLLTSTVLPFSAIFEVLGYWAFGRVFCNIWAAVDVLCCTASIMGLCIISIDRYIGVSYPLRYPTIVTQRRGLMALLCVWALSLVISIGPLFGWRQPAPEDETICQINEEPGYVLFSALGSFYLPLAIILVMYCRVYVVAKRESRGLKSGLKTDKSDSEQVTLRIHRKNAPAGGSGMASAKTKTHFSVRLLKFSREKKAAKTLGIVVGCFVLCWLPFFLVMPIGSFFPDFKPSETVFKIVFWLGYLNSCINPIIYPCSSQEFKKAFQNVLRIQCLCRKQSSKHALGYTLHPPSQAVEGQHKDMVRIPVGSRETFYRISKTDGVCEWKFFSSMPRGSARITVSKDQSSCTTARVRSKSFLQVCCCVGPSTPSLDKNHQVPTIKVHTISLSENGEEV
As to the kind of experiment: Test against other receptors: α-adrenergic 1A. Format: cell-based.

The next experiment has as its target T2, m4 receptor (Homo sapiens, UniProt P08173).
T2 construct: expressed in transfected cells; host or cells: NIH 3T3 (ATCC CRL 1658)
T2 sequence (P08173 1-479): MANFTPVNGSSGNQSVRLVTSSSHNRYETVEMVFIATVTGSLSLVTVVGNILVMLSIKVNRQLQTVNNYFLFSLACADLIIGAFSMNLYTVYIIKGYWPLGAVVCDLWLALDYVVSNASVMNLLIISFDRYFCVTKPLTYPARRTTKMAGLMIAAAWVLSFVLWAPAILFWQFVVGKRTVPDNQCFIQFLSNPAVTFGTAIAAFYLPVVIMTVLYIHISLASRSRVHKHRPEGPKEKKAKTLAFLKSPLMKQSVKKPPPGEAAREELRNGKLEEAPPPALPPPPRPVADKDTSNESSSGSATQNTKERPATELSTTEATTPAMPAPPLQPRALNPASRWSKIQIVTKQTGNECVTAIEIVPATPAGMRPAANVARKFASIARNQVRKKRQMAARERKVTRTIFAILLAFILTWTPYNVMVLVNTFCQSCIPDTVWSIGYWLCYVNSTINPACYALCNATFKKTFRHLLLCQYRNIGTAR
Put plainly: NIH 3T3 cells transfected with m4 muscarinic receptor and Gq-i5. In kind it is cell-based. The protocol:
Transfection of cells with muscarinic receptor DNAs (general procedure) NIH 3T3 cells (available from the American Type Culture Collection as ATCC CRL 1658) were grown at 37° C. in a humidified atmosphere (5% CO2) incubator in Dulbecco's modified Eagle's medium (DMEM) supplemented with 4.5 g/l glucose, 4 mM glutamine, 50 units/m1 penicillin, 50 units/m1 streptomycin (available from Advanced Biotechnologies, Inc., Gaithersburg, Md.) and 10% calf serum (available from Sigma, St. Louis, […].). The cells were treated with trypsin-EDTA, spun down and plated at 2×10^6 per 15 cm dish in 20 m1 of DMEM containing 10% calf serum.
The m1-m5 muscarinic receptor subtypes were cloned substantially as described by Bonner et al., Science 237, 1987, p. 527, and Bonner et al., Neuron 1, 1988, p. 403. For the m2 and m4 receptors, the cells were co-transfected with DNA encoding a chimera between the Gq protein and the five carboxy-terminal amino acids of the Gi protein (the Gq-i5 construct is described by Conklin et al., Nature 363, 1993, p.274).
On day one, the cells were transfected using the Superfect transfection reagent (available from Qiagen, Valencia, Calif.) in accordance with the manufacturer's instructions. […]

A further experiment deals with serotonin 5-HT2A (Homo sapiens, UniProt P28223). Put plainly: Test against other receptors: serotonin 5-HT2A.
Sequence of serotonin 5-HT2A (P28223 whole entry): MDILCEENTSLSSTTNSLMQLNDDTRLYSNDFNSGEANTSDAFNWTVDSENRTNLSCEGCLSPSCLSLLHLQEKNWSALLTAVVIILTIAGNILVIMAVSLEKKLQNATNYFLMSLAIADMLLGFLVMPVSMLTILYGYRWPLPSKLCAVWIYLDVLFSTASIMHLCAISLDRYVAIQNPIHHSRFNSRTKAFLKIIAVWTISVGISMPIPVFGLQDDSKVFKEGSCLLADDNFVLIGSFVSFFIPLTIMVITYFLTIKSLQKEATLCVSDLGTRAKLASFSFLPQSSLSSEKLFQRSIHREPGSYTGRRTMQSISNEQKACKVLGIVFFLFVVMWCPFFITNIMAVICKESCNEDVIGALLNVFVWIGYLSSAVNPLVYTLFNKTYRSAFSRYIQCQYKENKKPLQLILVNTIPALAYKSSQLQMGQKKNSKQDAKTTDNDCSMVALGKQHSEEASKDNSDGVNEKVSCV

The results in this text go back to patent publication US7485651B2, “Compounds with activity on muscarinic receptors” (Acadia Pharmaceuticals, Inc., priority 1998, dated 2009).

Take `CCCCC1CCN(CCCC(=O)c2ccccc2C)CC1` [Compound A, 4-n-Butyl-1-[4-(2-methylphenyl)-4-oxo-1-butyl]piperidine]: in experiment [1], the agonist activity entry is “no significant activity”. Besides, the “antagonism of carbachol-induced responses” value on m4 receptor is “not an antagonist”. For the same compound, at serotonin 5-HT2A, the agonist activity entry is listed as “no significant activity” and the “inhibition of receptor responses (antagonist experiments)” value is “did not inhibit”.
